We go through three molecules from paper PMC12032302, “A20 attenuates oxidized self-DNA-mediated inflammation in acute kidney injury” (Signal Transduction and Targeted Therapy, 2025).

The test system of one series is patients. The conditions noted are these: first course of cisplatin treatment; cited from earlier work. An excerpt: Acute kidney injury (AKI) is a life-threatening condition characterized by a rapid loss of renal function, leading to high mortality and morbidity.[1],[2] Approximately 13% of patients received the first course of cisplatin treatment developed AKI.[2],[3] Despite various initial triggers, the pathophysiology of AKI often involves common pathogenic denominators, such as cell death, tissue injury, and drastic inflammation.[4] Several types of cell death have been recently described in AKI, and multiple strategies targeting cell death have been reported to help mitigate the progression of AKI.[5] ...

Series [1] has as its system AKI mice. The experiment in a line: tubular injury / renal injury of AKI mice (HE histology). The class given is in vivo, mouse. As for the experimental part: (§1) LPS (Sigma, Cat#L2630) was dissolved in PBS to 2.5 mg/mL for one-time intraperitoneal 25 mg/kg injection; deoxyribonuclease I (DNase I, Sigma, Cat#SLBV1446) was dissolved in PBS to 1 mg/mL and injected intraperitoneally at a dose of 10 mg/kg at 4 h before cisplatin or AA I injection and every 24 h after injection. Disulfiram (MedChemExpress, CAS:97-77-8) was diluted in corn oil to 12.5 mg/mL and injected 50 mg/kg intraperitoneally every 24 h after cisplatin or AA I administration. Cu(II) (Sigma, Cat#344419) was dissolved in PBS to 30 µg/mL and administered intraperitoneally 6 h before disulfiram at a dose of 0.15 mg/kg; TNF-α (Peprotech, Cat#315-01 A) was dissolved in PBS to 10 µg/mL and injected at 100 µg/kg once through the caudal vein 24 h before cisplatin injection. […] MCC950 (MedChem Express, CAS:256373-96-3) was dissolved in PBS to 5 mg/mL and injected intraperitoneally at a dose of 50 mg/kg 12 h before cisplatin or AA I injection and every 12 h after injection; berberine (APExBIO, Cat#N1368) was dissolved in PBS to 5 mg/mL and 5 mg/kg injected intraperitoneally at 36, 24 and 12 h before cisplatin; […] To supervise the effects of various treatments on survival time and rate, the mice were observed, and survival curves were generated. To investigate the specific mechanisms, whole blood was retrieved from the orbit, serum was separated through centrifugation on the 4th day, and the mice were then sacrificed by cervical dislocation. Mice were randomly assigned in experiments, while there was no blinding during the animal experiments. Renal function was evaluated based on serum creatinine level and histological features. Serum creatinine was determined in the Clinical Pharmacology Lab, Clinical Trial Center, WCH, SCU. The kidneys were extracted from euthanized mice, immediately fixed with 4% paraformaldehyde, and embedded in paraffin. Furthermore, the samples were cut into 5 µm thick sections. These tissue samples were subjected to hematoxylin-eosin (HE) and […] according to standard protocols with HE reagent (Biosharp, Cat#BL702B, BL703B) and Masson reagent (Servicebio, Cat#G1006-100ML). The pathological changes were detected through optical microscopy, and the tubulointerstitial injury score was determined as previously reported.

Series [2] relates to AKI mice. Description: renal fibrosis of AKI mice (Masson staining). The format is in vivo, mouse. The note with it: Cis mice; metformin 50 mg/kg i.p. 24 h before and every 24 h after; n = 5. As for the experimental part: LPS (Sigma, Cat#L2630) was dissolved in PBS to 2.5 mg/mL for one-time intraperitoneal 25 mg/kg injection; deoxyribonuclease I (DNase I, Sigma, Cat#SLBV1446) was dissolved in PBS to 1 mg/mL and injected intraperitoneally at a dose of 10 mg/kg at 4 h before cisplatin or AA I injection and every 24 h after injection. Disulfiram (MedChemExpress, CAS:97-77-8) was diluted in corn oil to 12.5 mg/mL and injected 50 mg/kg intraperitoneally every 24 h after cisplatin or AA I administration. Cu(II) (Sigma, Cat#344419) was dissolved in PBS to 30 µg/mL and administered intraperitoneally 6 h before disulfiram at a dose of 0.15 mg/kg; TNF-α (Peprotech, Cat#315-01 A) was dissolved in PBS to 10 µg/mL and injected at 100 µg/kg once through the caudal vein 24 h before cisplatin injection. […] Renal function was evaluated based on serum creatinine level and histological features. Serum creatinine was determined in the Clinical Pharmacology Lab, Clinical Trial Center, WCH, SCU. […] The pathological changes were detected through optical microscopy, and the tubulointerstitial injury score was determined as previously reported.

The test system of series [3] is NEK7. The note with it: low dose; cited from earlier work. The text has this: Furthermore, we investigated the potential therapeutic medicines targeting to NEK7 and evaluated their effects on alleviating AKI. […] A ...
The subject of series [4] is NEK7. Description: NEK7 expression in renal tissue of mice (immunoblot). The format is in vivo, mouse. The note with it: Cis mice, metformin 50 mg/kg i.p., Fig. 9b.
Method: For immunoblot analysis of kidney tissue, total protein lysates were prepared from renal tissue, which was ground in liquid nitrogen and then added to lysis buffer in a Total Protein Extraction Kit (Signalway Antibody, Cat#PE001). Samples were centrifuged at 12,000 rpm for 15 min at 4 °C, and the supernatant was collected immediately. […] Ultimately, both types of protein samples were then mixed with 4× Laemmli loading buffer (Bio-Rad, Cat#1610747) and denatured by boiling at 95 °C for 5 min.
Prepared protein samples were subjected to 6-15% SDS polyacrylamide gels and separated according to the protein concentrations. Then, the protein bands were transferred to polyvinylidene difluoride (PVDF) membranes by a wet transfer apparatus (Bio-Rad, USA). […] The protein bands were detected with an enhanced chemiluminescence kit (Millipore, Cat#WBKLS0500) using a gel imaging system (Bio-Rad, USA) for visualization and standardization of the amount of protein loaded. α-Tubulin was used as the internal control. […]
The subject of series [5] is AKI mice. The experiment in a line: survival of AKI mice. The format is in vivo, mouse. The note with it: n = 10 per group. As for the experimental part:
(§2) Aristolochic acid I sodium salt was dissolved in PBS to 1 mg/mL and injected intraperitoneally at a dose of 10 mg/kg (body weight) every 24 h for 3 days; cisplatin was dissolved in PBS to 1.5 mg/mL for one-time intraperitoneal 25 mg/kg injection; LPS (Sigma, Cat#L2630) was dissolved in PBS to 2.5 mg/mL for one-time intraperitoneal 25 mg/kg injection; deoxyribonuclease I (DNase I, Sigma, Cat#SLBV1446) was dissolved in PBS to 1 mg/mL and injected intraperitoneally at a dose of 10 mg/kg at 4 h before cisplatin or AA I injection and every 24 h after injection. Disulfiram (MedChemExpress, CAS:97-77-8) was diluted in corn oil to 12.5 mg/mL and injected 50 mg/kg intraperitoneally every 24 h after cisplatin or AA I administration. Cu(II) (Sigma, Cat#344419) was dissolved in PBS to 30 µg/mL and administered intraperitoneally 6 h before disulfiram at a dose of 0.15 mg/kg; TNF-α (Peprotech, Cat#315-01 A) was dissolved in PBS to 10 µg/mL and injected at 100 µg/kg once through the caudal vein 24 h before cisplatin injection. Metformin (Sigma, Cat#D150959) was dissolved in PBS to 5 mg/mL and injected intraperitoneally at a dose of 50 mg/kg 24 h before cisplatin or AA I injection and every 24 h after injection. MCC950 (MedChem Express, CAS:256373-96-3) was dissolved in PBS to 5 mg/mL and injected intraperitoneally at a dose of 50 mg/kg 12 h before cisplatin or AA I injection and every 12 h after injection; berberine (APExBIO, Cat#N1368) was dissolved in PBS to 5 mg/mL and 5 mg/kg injected intraperitoneally at 36, 24 and 12 h before cisplatin; A20-derived-peptide was dissolved in ddH2O to 3 mg/mL and injected intraperitoneally at a dose of 15 mg/kg 1 h before cisplatin. To supervise the effects of various treatments on survival time and rate, the mice were observed, and survival curves were generated. To investigate the specific mechanisms, whole blood was retrieved from the orbit, serum was separated through centrifugation on the 4th day, and the mice were then sacrificed by cervical dislocation. Mice were randomly assigned in experiments, while there was no blinding during the animal experiments.

In series [6] the test system is NEK7. Description: NEK7 expression in iBMDMs (immunoblot). The class given is cell-based, mouse. The conditions noted are these: LPS plus metformin 0, 1, 2 or 5 mM, Fig. 9a. How it is done:
For immunoblot analysis of kidney tissue, total protein lysates were prepared from renal tissue, which was ground in liquid nitrogen and then added to lysis buffer in a Total Protein Extraction Kit (Signalway Antibody, Cat#PE001). Samples were centrifuged at 12,000 rpm for 15 min at 4 °C, and the supernatant was collected immediately. For immunoblot analysis of cells, cultured cells after treatment were lysed with lysis buffer, which was premixed with protease and phosphatase inhibitors (Signalway Antibody, Cat#PE001). The samples were centrifuged at 12,000 r/min for 15 min at 4 °C, and the supernatant was collected immediately. Ultimately, both types of protein samples were then mixed with 4× Laemmli loading buffer (Bio-Rad, Cat#1610747) and denatured by boiling at 95 °C for 5 min.
Prepared protein samples were subjected to 6-15% SDS polyacrylamide gels and separated according to the protein concentrations. Then, the protein bands were transferred to polyvinylidene difluoride (PVDF) membranes by a wet transfer apparatus (Bio-Rad, USA). […] The protein bands were detected with an enhanced chemiluminescence kit (Millipore, Cat#WBKLS0500) using a gel imaging system (Bio-Rad, USA) for visualization and standardization of the amount of protein loaded. α-Tubulin was used as the internal control.

For series [7], the system named is AKI mice. The experiment in a line: serum creatinine of AKI mice. The format is in vivo, mouse. How it is done:
as §1

Series [8] deals with AKI mice. The experiment in a line: overall therapeutic effect in AKI mice. The class given is in vivo, mouse. The note with it: TNF-α vs Anc80L65 (A20 overexpression). How it is done: as §2
Another series deals with BMDMs. Description: pyroptotic induction of BMDMs by ox-DNA or LPS plus ATP (immunoblot of GSDMD). The class given is cell-based, mouse. The conditions noted are these: BMDMs pretreated with low-dose TNF-α before ox-dsDNA90 or LPS plus ATP; Fig. 6l. How it is done: Primary bone marrow-derived macrophages (BMDMs) were isolated from 6- to 8-week-old C57BL/6J male mice. The mice were sacrificed and soaked in 75% alcohol for 1–2 min. The femurs and tibias were removed and immersed in PBS containing 500 U/mL penicillin and […] streptomycin for 3 min. The marrow cavities were repeatedly rinsed with DMEM using a sterile 1 mL syringe. The cell suspension was collected and centrifuged at 300 × g for 10 min, and the supernatant was discarded. The cell pellet was resuspended in 5 mL red cell lysis buffer (Bio Sharp, Cat#BL503A) on ice for 5 min, followed by centrifugation, and the supernatant was removed. The cells were then resuspended in DMEM complete culture medium supplemented with 10% FBS and 30% L929 cell-conditioned medium as an induction factor.[51] Half of the medium was changed every other day for 5–7 days. The suspended cells were removed, and the adherent BMDMs were digested with trypsin and plated on a six-well plate at a density of 1 × 10^6 cells/well. […]
Prepared protein samples were subjected to 6-15% SDS polyacrylamide gels and separated according to the protein concentrations. […] The protein bands were detected with an enhanced chemiluminescence kit (Millipore, Cat#WBKLS0500) using a gel imaging system (Bio-Rad, USA) for visualization and standardization of the amount of protein loaded. α-Tubulin was used as the internal control.
(In western blotting, separated proteins are transferred to a membrane and probed.)

[9] abbreviates: Cis mice, metformin 50 mg/kg i.p. 24 h before and every 24 h after.
[10] abbreviates: Cis or AA I mice, TNF-α 100 µg/kg pre-injection.

`N.N.[Cl][Pt][Cl]` [cisplatin]: in the series on patients, the “patients developing AKI after first course of treatment” value was “Approximately 13%”.
Regarding `CN(C)C(=N)N=C(N)N` [metformin, Metformin], the “tubular injury (in words)” value in the series with AKI mice [1] (setting [9]) is recorded as “markedly ameliorated cisplatin-induced serum creatines, tubular injury”. Moreover, the renal fibrosis entry in the series with AKI mice [2] is given as “markedly ameliorated cisplatin-induced serum creatines, tubular injury, renal fibrosis”. Further, in the series with NEK7 [3], the “NEK7 expression (literature)” value is reported as “limit the expression of NEK7 to alleviate inflammation”. For the same molecule, the “NEK7 expression in vivo” value in the series with NEK7 [4] is “downregulates NEK7”. The survival result with AKI mice [5] (setting [9]) was “longer survival time and better survival rate”. The “NEK7 expression in vitro” value with NEK7 [6] is on record as “downregulates NEK7”. Moreover, in the series on AKI mice [7] (setting [9]), the “serum creatinine (in words)” value is listed as “markedly ameliorated cisplatin-induced serum creatines”.
TNF-α: in the series on AKI mice [8], the “alleviation of AKI compared with Anc80L65” value is recorded as “more efficient in alleviating AKI”. Also, the “resistance of BMDMs to pyroptotic induction” value with BMDMs was “more resistant to pyroptotic induction”. Also, the “tubular injury (in words)” value in the series on AKI mice [1] (setting [10]) was “alleviated serum creatinine and tubular injury”. In addition, in the series with AKI mice [5] (Cis or AA I mice, TNF-α 100 µg/kg once through the caudal vein 24 h before), the survival entry is given as “extended overall survival benefit”. In addition, the “serum creatinine (in words)” value in the series with AKI mice [7] (setting [10]) is reported as “alleviated serum creatinine”.
